Test results: patent publication US20260373193A1, “CARCINOGENESIS REDUCTION WITH PENTAAZA MACROCYLIC RING COMPLEX” (GALERA LABS, LLC, priority 2023, published 2026)
Entries after “also recorded” stand apart in the source; their conditions may differ.

Columns and labels:
[1] = system: female BALB/c mice; test: long-term survival of irradiated and unirradiated mice treated or not with GC4419; type: in vivo, mouse (female BALB/c)
Protocol: (§1) All animal studies conducted used female BALB/c mice irradiated at 77-91 days of age and housed for a lifetime study to determine rates of carcinogenesis and survival. Animals were purchased from Charles River Laboratory, shipped to Brookhaven National Laboratory, and irradiated with the doses and ion species described below.
(§2) Animals were treated or not with GC4419. Those animals treated with GC4419 followed the following strategy. GC4419 was delivered at a dose of 24 mg/kg (mice were weighed prior to drug delivery) interperitoneally (i.p.) at roughly 45-60 minutes prior to radiation exposure. GC4419 was then provided i.p. for the next 6 days, and the animals were shipped to UT Southwestern (UTSW) Medical Center for temporary quarantine before returning to the animal facility. Upon return to UTSW the animals were treated with GC4419 i.p. weekly for another 11 weeks for a total of 12 weeks on treatment.
(§3) Radiation exposures were whole body. The galactic cosmic ray (GCR) simulation exposures used the beam line at the NASA Space Radiation Laboratory at Brookhaven National Lab (BNL) and the γ-ray exposures used a ^137Cs source at BNL. Subsequent to single dose irradiation, animals were returned to their cages.
(§4) Galactic cosmic rays (GCR) are heavy ion radiation characteristic of the deep space environment, and the GCR simulation (GCRsim) at BNL mimics the complex radiation environment in space. The GCRsim ions used are described in Table 1 below.
FIGS. 1A-1D represent survival in cohorts where animals were exposed to single dose whole-body γ-rays or not irradiated (Control), and treated or not with GC4419. FIGS. 1A-1B present preliminary results through approximately 400-600 days post-irradiation depending on the cohort. FIGS. 1C-1D present final results. As expected, the survival curves show in the animals not treated with GC4419, trends to survival decreasing with increasing γ-ray dose from unirradiated Control to 0.75 Gy (FIGS. 1B & 1D) to 1.5 Gy (FIGS. 1A & 1C).
FIGS. 2A-2D represent survival in cohorts where animals were exposed to single dose whole-body GCRsim radiation or not irradiated (Control), and treated or not with GC4419. FIGS. 2A-2B present results, including preliminary data for unirradiated animals treated with GC4419 (Control+GC4419) cohort through approximately 400 days post-irradiation. FIGS. 2C-2D present final results for all the presented cohorts. As with γ-rays, the survival curves show in the animals not treated with GC4419, trends to survival decreasing with increasing GCRsim dose from unirradiated control to 0.4 Gy to 0.75 Gy. […] This may reflect that GCRsim is a combination of various radiations of varying carcinogenic potential curves.
FIGS. 3A-3C represent survival in cohorts where unirradiated animals (Control) were treated or not with GC4419. FIG. 3A presents results through approximately 400 days post-irradiation with the range of the y-axis covering 95-100% survival. FIG. 3B-3C present final results with the ranges of the y-axis covering 0-100% and 70-100% survival.

[2] = system: lung masses; test: incidence of lung masses at necropsy; type: in vivo, mouse (female BALB/c); conditions: for # Lung Masses / % Yield (percentage mice with lung masses): GC4419 24 mg/kg i.p.; for occurrence of lung masses vs untreated / incidence of lung tumors vs untreated: final results (FIG. 4)
Protocol: as §1, §2, §3, §4
(§5) Pathological endpoints were also considered. Specifically, lung cancer induction, or carcinogenesis, and other tumors that are evident in numbers large enough to consider as secondary endpoints. These endpoints are described in the following tables and figure. The term “masses” is used to describe an abnormal growth, evident by eye, within a given tissue; for example, the term “lung masses” is used to describe abnormal tissues found in the lung that are collected for pathologic examination.
(§6) Given prior experience with the mouse model of radiation-induced carcinogenesis, it is expected that most, if not all, of the lung masses are tumors. For the ovarian masses, some proportion of the masses are expected to be tumors. For observations of hepatosplenomegaly, many of the enlarged livers and spleens may not reflect tumors of those organs. These may, however, may be present as result of hematologic malignancies, such as leukemias, but that was not assessed in this experiment.
Table 2 presents the incidence of lung masses observed at necropsy by treatment cohort, including preliminary data for certain γ-ray cohorts through approximately 600 days post-irradiation and for unirradiated animals treated with GC4419 (Control+GC4419) cohort through approximately 400 days post-irradiation. FIG. 4 presents final results for incidence of lung masses. […] In other words, in part GC4419 could have delayed carcinogenesis.

[3] = system: hepatosplenomegaly; test: incidence of hepatosplenomegaly at necropsy; type: in vivo, mouse (female BALB/c); conditions: for # Enlarged (hepatosplenomegaly) / % Yield (percentage of mice with hepatosplenomegaly): GC4419 24 mg/kg i.p.
Protocol: as §1, §2, §3, §4, §5, §6
Table 4 presents the incidence of hepatosplenomegaly observed at necropsy by treatment cohort, in general through approximately 700 days, for certain γ-ray cohorts through approximately 600 days post-irradiation, and for unirradiated animals treated with GC4419 (Control+GC4419) cohort through approximately 400 days post-irradiation.

[4] = system: oral mucositis; conditions: head-and-neck cancer patients, chemoradiation, Phase IIB; cited from earlier work
[5] = system: kidney damage from cisplatin; conditions: cisplatin therapy for cancer; cited from earlier work
[6] = system: Non-Small Cell Lung Carcinoma Cell Lines; conditions: NSCLC cell lines; with cisplatin or cisplatin plus radiation; cited from earlier work
[7] = system: acute and sub-chronic radiation damage; platinum therapy kidney damage; conditions: mucositis, pulmonary pneumonitis and fibrosis, liver damage; cited from earlier work
[8] = system: established tumors; conditions: cited from earlier work

With `[Cl][Mn][Cl].c1cc2nc(c1)CN[C@H]1CCCC[C@@H]1NCCN[C@H]1CCCC[C@@H]1NC2` [GC4419] the “survival vs irradiated untreated” value ([1]; GCRsim 0.4 Gy, 24 mg/kg i.p., final results) was “neither increases nor decreases survival”, the “survival vs irradiated untreated” value ([1]; GCRsim 0.75 Gy, 24 mg/kg i.p., final results, p<0.05) was “statistically significantly increased survival” and the “survival vs unirradiated untreated” value ([1]; unirradiated (Control), 24 mg/kg i.p., final results, p<0.01 (FIGS. 3A-3C), 24 mg/kg) was “statistically significantly increased survival; also recorded: appears to increase survival in unirradiated animals”. The “survival, overall” value ([1]; variety of radiation types and doses) was “appears to have an effect on survival in animals exposed to a variety of radiation types and doses”, the “survival vs unirradiated animals not treated with GC4419” value ([1]; γ-ray 0.75 Gy, 24 mg/kg i.p., final results) was “equivalent survival to unirradiated animals not treated with GC4419” and the “survival vs irradiated untreated” value ([1]; γ-ray 0.75 Gy, 24 mg/kg i.p., final results, p<0.01 (FIG. 1D)) was “statistically significantly increased survival”. The “survival vs irradiated untreated” value ([1]; γ-ray 1.5 Gy, 24 mg/kg i.p., final results, p<0.05 (FIG. 1C)) was “statistically significantly increased survival”, the “# Lung Masses” value ([2]; GCRsim 0.4 Gy, 224 mice) was 24 and the “% Yield (percentage mice with lung masses)” value ([2]; GCRsim 0.4 Gy, 224 mice, untreated pair 10.0) was 10.7%. For the same compound, the “# Lung Masses” value ([2]; GCRsim 0.75 Gy, 248 mice) was 27, the “% Yield (percentage mice with lung masses)” value ([2]; GCRsim 0.75 Gy, 248 mice, untreated pair 21.0) was 10.9% and the “occurrence of lung masses vs untreated” value ([2]; GCRsim 0.75 Gy, p<0.01) was “markedly and statistically significantly decreased occurrence of lung masses”. For the same compound, the “# Lung Masses” value ([2]; unirradiated (0 Gy), 235 mice, preliminary, approx. 400 days) was 1, the “% Yield (percentage mice with lung masses)” value ([2]; unirradiated (0 Gy), 235 mice, preliminary, approx. 400 days, untreated pair 10.6) was 0.4% and the “incidence of lung tumors vs untreated” value ([2]; unirradiated (Control)) was “absence of a clear difference”. For the same compound, the “# Lung Masses” value ([2]; γ-ray 0.75 Gy, 248 mice, preliminary for certain γ-ray cohorts (approx. 600 days)) was 15, the “% Yield (percentage mice with lung masses)” value ([2]; γ-ray 0.75 Gy, 248 mice, preliminary for certain γ-ray cohorts (approx. 600 days), untreated pair 14.7) was 6.0% and the “occurrence of lung masses vs untreated” value ([2]; γ-ray 0.75 Gy, p<0.05) was “markedly and statistically significantly decreased occurrence of lung masses”. The “# Lung Masses” value ([2]; γ-ray 1.5 Gy, 248 mice, preliminary for certain γ-ray cohorts (approx. 600 days)) was 16, the “% Yield (percentage mice with lung masses)” value ([2]; γ-ray 1.5 Gy, 248 mice, preliminary for certain γ-ray cohorts (approx. 600 days), untreated pair 11.9) was 6.5% and the “incidence of lung tumors vs untreated” value ([2]; γ-ray 1.5 Gy) was “absence of a clear difference”. For the same compound, the “# Enlarged (hepatosplenomegaly)” value ([3]; GCRsim 0.4 Gy, 224 mice, approx. 700 days) was 33, the “% Yield (percentage of mice with hepatosplenomegaly)” value ([3]; GCRsim 0.4 Gy, 224 mice, approx. 700 days, untreated pair 13.9) was 14.7% and the “# Enlarged (hepatosplenomegaly)” value ([3]; GCRsim 0.75 Gy, 248 mice, approx. 700 days) was 36. The “% Yield (percentage of mice with hepatosplenomegaly)” value ([3]; GCRsim 0.75 Gy, 248 mice, approx. 700 days, untreated pair 7.7) was 14.5%, the “# Enlarged (hepatosplenomegaly)” value ([3]; unirradiated (0 Gy), 235 mice, approx. 400 days) was 1 and the “% Yield (percentage of mice with hepatosplenomegaly)” value ([3]; unirradiated (0 Gy), 235 mice, approx. 400 days, untreated pair 5.1) was 0.4%. For the same compound, the “hepatosplenomegaly incidence vs untreated” value ([3]; within paired cohorts) was “no consistent trend to increased or decreased incidence within paired cohorts”, the “# Enlarged (hepatosplenomegaly)” value ([3]; γ-ray 0.75 Gy, 248 mice, certain γ-ray cohorts approx. 600 days) was 9 and the “% Yield (percentage of mice with hepatosplenomegaly)” value ([3]; γ-ray 0.75 Gy, 248 mice, certain γ-ray cohorts approx. 600 days, untreated pair 10.6) was 3.6%. The “# Enlarged (hepatosplenomegaly)” value ([3]; γ-ray 1.5 Gy, 248 mice, certain γ-ray cohorts approx. 600 days) was 17, the “% Yield (percentage of mice with hepatosplenomegaly)” value ([3]; γ-ray 1.5 Gy, 248 mice, certain γ-ray cohorts approx. 600 days, untreated pair 7.5) was 6.8% and the oral mucositis [4] was “reduce oral mucositis”. The “kidney damage from cisplatin” value [5] was “reduce kidney damage from cisplatin therapy”, the “response to cisplatin and cisplatin plus radiation” value [6] was “Enhances the Response of Non-Small Cell Lung Carcinoma Cell Lines to Cisplatin and Cisplatin Plus Radiation” and the “overt acute and sub-chronic radiation damage; platinum therapy kidney damage” value [7] was “reduce overt acute and sub-chronic radiation damage”. For the same compound, the “efficacy of radiation and other therapies” value [8] was “enhance the efficacy of radiation and other therapies”.
